# From patent US4897254A, “Radioactive compositions for the treatment of calcific tumors” (priority 1987, dated 1990)
# What was measured:
# [1] = two-hour rat biodistribution after tail vein injection (NaI scintillation counting of dissected tissues); conditions: in vivo
# Source text: Quantitative biodistributions were obtained by injecting 50-100 microliters of the composition into the tail vein of unanesthetized male Sprague Dawley rats. The rats were then placed in cages lined with absorbent paper in order to collect all urine excreted prior to sacrifice. After a given period of time, the rats were sacrificed by cervical dislocation and the various tissues dissected. The samples were then rinsed with saline, blotted dry on absorbent paper and weighed.
# [2] = cited from earlier work
# [3] = radionuclide; cited from earlier work
# [4] = patients with metastatic bone lesions
molecule,measurement,setting,value
Sm-153-diethylenetriaminepentaacetic acid [Sm-153-DTPA],skeletal uptake (in words),[1],low skeletal uptake
Sm-153-nitrilotriacetic acid [Sm-153-NTA],liver uptake (in words),[1],high liver uptake
Strontium-89,blood levels,[2]; [4],high blood levels
same,lesion to normal bone ratios,[2]; [4],low lesion to normal bone ratios
same,half-life,[3],50.4 days
NC(c1ccc(O)c([131I])c1)(P(=O)(O)O)P(=O)(O)O [α-amino-(3-iodo-4-hydroxybenzylidene)diphosphonate],possible metabolite,[2]; in vivo,iodide as one of the possible metabolites
